# Source: patent US10500197B2, “Use of oligopyridylamides to inhibit mutant p53 amyloid formation and restore its tumor suppressor function” (New York University, priority 2017, dated 2019)
# “Also recorded” adds a separate entry of the source. Where no end group is shown, it is not given here.
# What was measured:
# [1] = tested on: MCF-7 cells (wild-type p53); assay: MTS cell viability in MCF-7 cells; assay type: cell-based; settings: 5 and 10 μM, 24 hours, serum-free media
# Experimental: (§1) MTS assays were performed with Promega CellTiter One MTS solution according to protocol. MIA PaCa-2 cells were seeded at 2,000 cells/well, MCF-7 at 4,000 cells/well, COS-7 at 5,000 cells/well and HeLa at 3,000 cells/well. These values were individually optimized for the assay prior to experimentation. All cells were incubated for 24 hours to allow proper adherence to the well. On treatment day, wells were washed with warm PBS and media was replaced with a serum-free version. If treatment peptides were purified from crude form, they were also filtered using a 0.2 µm filter before introduction to cells. On MTS reading day, media was changed again (serum-free) and 20 μL of MTS was added to each 100 μL well. Cells were incubated at 37° C. for 2 hours before reading absorbance at 490 nm using Synergy H1 (BioTek) equipped with Gen5 software. Background absorbance from control wells was quantified and subtracted from obtained experimental absorbance values.
# (§2) It has been shown that the ADH compounds have no toxic effect on N2a cells, which carry wild-type p53. Their effect on other wild-type p53 cell lines: MCF-7 and COS-7 was further investigated. Cells were incubated with ADH compounds 17, 27, 40, 41 and 46 for 24 hours at 5 and 10 μM in serum-free media before determining cell viability via MTS (FIG. 2).
# [2] = tested on: COS-7 cells (wild-type p53); assay: MTS cell viability in COS-7 cells; assay type: cell-based; settings: 5 and 10 μM, 24 hours, serum-free media
# Experimental: as §1, §2
# [3] = tested on: MIA PaCa-2 cells (R248W p53 mutant); assay: MTS cell viability assay in MIA PaCa-2 cells; assay type: cell-based; settings: 5 and 10 μM, 24 and 48 hours, serum-free media
# Experimental: MIA PaCa-2 (CRL-1420) cells, which contain the R248W p53 contact mutant, were obtained from ATCC and cultured in ATCC-formulated Dulbecco's Modified Eagle's Medium supplemented with 10% fetal bovine serum (FBS), 2.5% horse serum, 4% 200 mM L-glutamine and 1% penicillin/streptomycin. A separate stock of serum-free medium was kept for cell viability assays. Cells were split at a 1:3 ratio 2-3 times a week and maintained at 80% confluence and >85% viability. Viability was regularly measured through Trypan Blue dilution correction during cell counting. Cell cultures were stored at 37° C. in T75 coated flasks and kept under 5% CO2.
# MTS assays were performed with Promega CellTiter One MTS solution according to protocol. MIA PaCa-2 Cells were seeded at 2,000 cells/well and were incubated for 24 hours to allow proper adherence to the well. On treatment day, wells were washed with warm PBS and media was replaced with a serum-free version. If treatment peptides were purified from crude form, they were also filtered using a 0.2 µm filter before introduction to cells. On MTS reading day, media was changed again (serum-free) and 20 μL of MTS was added to each 100 μL well. Cells were incubated at 37° C. for 2 hours before reading absorbance at 490 nm using Synergy H1 (BioTek) equipped with Gen5 software.
# as §1
# The two classes of designed peptide inhibitors have been introduced to a cancer cell-line that harbors the R248W p53 mutant, MIA PaCa-29. It has been hypothesized that upon co-localization of the inhibitors with mutant p53, mutant p53 aggregates will be abrogated, resulting in the release of wild-type p53 from cellular inclusions and, eventually, the induction of apoptosis. The 4 designed peptides were introduced to MIA PaCa-2 cells at 5 and 10 μM for 24 and 48 hour incubation periods. MTS assay was used to assess cell viability after treatment, whereby the bio-reduction of the MTS tetrazolium compound results in detectable color change that is proportional to the number of viable cells left in a sample (see Example 1).
# MIA PaCa-2 cells were incubated with ADH compounds 17, 27, 31, 37, 39, 40, 41, 45, 46, and 52 (5 and 10 μM) for 24 and 48 hours. Cell viability was determined using the MTS assay.
# R248W mutant p53 peptide = R248W mutant p53 peptide (Homo sapiens, UniProt P04637, R248W); assay: Thioflavin T (ThT) assay, inhibition of R248W peptide aggregation; assay type: biochemical; settings: 1:1 ratio to R248W peptide, 37° C., 10 hours
# Experimental: (§3) This fluorescence can be monitored overtime to estimate the increase in beta-sheet structure of incubated peptides, indicating amyloid formation. […] 50 μM ThT was incubated at 37° C. with varying concentrations of peptides and inhibitors to estimate both the aggregation propensity of mutant peptides and the abrogation of aggregation brought about by inhibitor treatment. All samples were sonicated, including the ThT solution, prior to each addition of peptides to ensure the obtainment of clear sigmoidal curves. Fluorescence in transparent-bottom 96-well sample plates was monitored by the cell plate reader Synergy H1 (BioTek).
# To test the inhibition efficacy of these peptides, they were subjected to a ThT assay whereby a fixed concentration of R248W was treated with varying concentrations of the respective inhibitor peptide in the presence of ThT dye and buffer. […] It is hypothesized that this effect is due to the relative hydrophobicity of the PAS sequence (FFLIPKG) (FIG. 4B).
# 10 compounds based on the oligopyridylamide molecular scaffolds have been tested on mutant p53 aggregation models. A ThT assay was used to test the inhibition capability of each compound at a 1:1 ratio to the R248W mutant peptide.
# [4] = molecular target: R248W mutant p53 peptide aggregates (Homo sapiens, UniProt P04637, R248W); assay: Multi-step ThT assay, abrogation of pre-formed R248W aggregates; assay type: biochemical; settings: 50 μM R248W incubated 35 minutes at 37° C., then equimolar ADH compound
# Experimental: as §3
# Accordingly, a multi-step ThT assay was designed that would evaluate the ability of an inhibitor to abrogate aggregation at different stages of amyloid formation. Based on the sigmoidal curve produced in ThT assays of the R248W peptide, 3 time points were selected to introduce the inhibitor to mutant p53 aggregates. The first would occur at 0 mins, where no R248W aggregates would have been previously formed. The second time point would be approximately 30 mins after aggregation begins, during the exponential increase in fluorescence of the R248W ThT sigmoidal curve. The last time point would be during the plateau phase of the curve at approximately 5 hours after initiation of the assay, whereby aggregates reach an equilibrium phase and stabilize in solution.
# In order to target p53 aggregation in the cellular environment, the ADH compounds according to the invention would need to bind and abrogate pre-formed p53 aggregates, as well as prevent additional aggregation. Inhibition of pre-formed aggregates would be a crucial feature of therapeutics that successfully target mutant p53 aggregation in cancer. Using the multi-step thioflavin T assay, where the inhibitor is added to R248W at either elongation or the plateau phases of amyloid formation, 50 μM of the R248W peptide was incubated at 37° C. for 35 minutes before adding an equimolar ratio of the ADH compound (FIG. 1).
# HeLa cells = assay: MTS cell viability in HeLa cells; assay type: cell-based; settings: 5 or 10 μM, 24 hours, serum-free media
# Experimental: as §1
# It has been hypothesized that the ADH compounds may bind to wild-type p53 in a manner that preserves its main function, yet disrupts other protein-protein interactions in the cellular environment. HeLa cells are known to have very low p53 expression levels, which is attributed to the expression of the HPV-E6 protein. E6 proteins target p53 for proteasomal degradation via the ubiquitin pathway by binding to p53's core domain (residues 94-292) and C-terminus. Because it has been hypothesized that the effective ADH compounds (40, 41, and 46) target the p53 DNA-binding domain located in its core region, the compounds may prevent E6 binding, leading to p53 accumulation and eventually apoptosis. […] Since ReACp53 is a sequence-specific peptide that targets the p53 DNA-binding domain, it may also prevent E6 binding through a similar mechanism.
Molecule,toxicity in MCF-7 cells (MTS) [1],toxicity in COS-7 cells (MTS) [2],effect of ADH compounds on MIA PaCa-2 cell viability (MTS) [3],inhibition of R248W mutant p53 aggregation by ADH compounds (ThT fluorescence) (R248W mutant p53 peptide),abrogation of R248W aggregates at the elongation phase [4],toxicity in HeLa cells (MTS) (HeLa cells),cytotoxicity of peptides in MIA PaCa-2 cells (MTS) [3]
COC(=O)c1ccc(NC(=O)c2ccc(NC(=O)c3ccc([N+](=O)[O-])c(OCc4ccccc4)n3)c(OCC(=O)O)n2)c(OCC(=O)O)n1 [ADH-27],No significant toxicity; also recorded: do not induce significant toxicity,No significant toxicity; also recorded: do not induce significant toxicity,,,,,
COC(=O)c1ccc(NC(=O)c2ccc(NC(=O)c3ccc([N+](=O)[O-])c(OCC(=O)O)n3)c(OCc3ccccc3)n2)c(OCC(=O)O)n1 [ADH-17],No significant toxicity; also recorded: do not induce significant toxicity,No significant toxicity; also recorded: do not induce significant toxicity,non-toxic effects,,,,
COC(=O)c1ccc(NC(=O)c2ccc(NC(=O)c3ccc([N+](=O)[O-])c(OC(C)C)n3)c(OCc3ccccc3)n2)c(OCCCN)n1 [ADH-39],,,,inhibit mutant p53 aggregation with varying levels of effectiveness,,,
CCCCOc1nc(C(=O)Nc2ccc(C(=O)Nc3ccc(C(=O)OC)nc3OCCCN)nc2OCCCN)ccc1[N+](=O)[O-] [ADH-40],No significant toxicity; also recorded: do not induce significant toxicity,No significant toxicity; also recorded: do not induce significant toxicity,highly significant toxicity; also recorded: extremely significant effect on cell viability,inhibit mutant p53 aggregation with varying levels of effectiveness,abrogate aggregation at the elongation phase; also recorded: able to target and abrogate aggregates at the elongation phase,Significant toxicity; also recorded: significantly toxic,
"ReACp53: recently developed peptide that targets p53 aggregation, oligoarginine tag, (image prefix) RPILTRITLE (also: oligoarginine tag) [reference compound]",No significant toxicity; also recorded: does not appear to induce toxicity,No significant toxicity; also recorded: does not appear to induce toxicity,,,,induce significant toxicity; also recorded: significantly toxic,induce cell death; also recorded: significantly cytotoxic
COC(=O)c1ccc(NC(=O)c2ccc(NC(=O)c3ccc(NC(=O)c4ccc([N+](=O)[O-])c(OCC(C)C)n4)c(OCc4ccccc4)n3)c(OCC(=O)O)n2)c(OCC(=O)O)n1 [ADH-31],,,,inhibit mutant p53 aggregation with varying levels of effectiveness,,,
COC(=O)c1ccc(NC(=O)c2ccc(NC(=O)c3ccc([N+](=O)[O-])c(OCCCN)n3)c(OCc3ccccc3)n2)c(OCCCN)n1 [ADH-37],,,,inhibit mutant p53 aggregation with varying levels of effectiveness,,,
COC(=O)c1ccc(NC(=O)c2ccc(NC(=O)c3ccc([N+](=O)[O-])c(OCC(C)C)n3)c(OCCCN)n2)c(OCCCN)n1 [ADH-46],No significant toxicity; also recorded: do not induce significant toxicity,No significant toxicity; also recorded: do not induce significant toxicity,highly significant toxicity; also recorded: extremely significant effect on cell viability,inhibit mutant p53 aggregation with varying levels of effectiveness,abrogate aggregation at the elongation phase; also recorded: able to target and abrogate aggregates at the elongation phase,Significant toxicity; also recorded: significantly toxic,
